As a reminder, the EC50 is the concentration at which the effect is half-maximal. A low value points to an effect from little substance.

In brackets after ≈: the same amount, converted by molar mass. Several values for one entry are separate records, joined by “and”; a condition that tells them apart may be missing. Identical values can stand only once. Like-named read-outs stand apart in the source and are kept apart here.

The values below come from patent US11180452B2, “Methods and compositions for selectively inhibiting pathogenic microbes” (priority 2019, dated 2021).

Data set [1] has as its system NoSpin HepaRG cells. The data set can be described thus: HepaRG cytotoxicity, MTT assay EC50. In kind it is cell-based, human. The note with it: Homo sapiens, HepaRG; cytotoxicity EC50, Table 9. As for the experimental part:
Additionally, the antimicrobial compounds were analyzed for cytotoxicity. […] We utilized the standard MTT assay (Promega CellTiter 96) and GraphPad Prism 7 software to determine EC50 values for each analogue. Briefly, 20,000 HepG2 cells in 200 μl of the ATCC recommended media were seeded in each well of a 96-well plate with a moisture barrier created in the outermost wells. The cells were allowed to attach overnight at 37° C., and then observed under phase contrast microscopy for proper morphological characteristics. […] Once incubations were complete, the spectrophotometric absorbance of the samples was measured at a wavelength of 595 nm. […] For the HepaRG assay, NoSpin HepaRG™ cells (Lonza, cat #NSHPRG) were thawed and plated with 20,000 cells per well. They were allowed to attach for 4 h (optimal DME profile per Lonza's testing) before dosing following the identical protocol as above.
(In general: Tetrazolium assays rely on reduction of a dye to a coloured formazan, in cell work by metabolically active cells.)

Data set [2] deals with Bacillus subtilis. The data set can be described thus: Bacillus subtilis MIC / MBC. In kind it is cell-based. The note with it: for MIC: Bacillus subtilis, Bacillus subtilis (Ehrenberg 1835) Cohn 1872 NRRL: B-571, read-out: MIC.
In data set [3] the test system is Burkholderia thailandensis Brett et al ATCC: 700388. The data set can be described thus: microbe, parasite or virus in culture. The format is cell-based.
In data set [4] the test system is Candida glabrata. The data set can be described thus: Candida glabrata MIC / MFC. The note with it: Nakaseomyces glabratus, Candida glabrata #584 (Table 2); read-out: MIC. In kind it is cell-based.
The subject of data set [5] is Francisella tularensis subsp. Holarctica Strain LVSR NR-597. The data set can be described thus: microbe, parasite or virus in culture. The format is cell-based.
The test system of data set [6] is N. gonorrhoeae. Nature of the data set: N. gonorrhoeae MIC. In kind it is cell-based. The conditions noted are these: Neisseria gonorrhoeae.
For data set [7], the system named is Bacillus thuringiensis. The format is cell-based. The note with it: Bacillus thuringiensis Berliner ATCC: 10792.
In data set [8] the test system is Francisella tularensis strains. Nature of the data set: microbe, parasite or virus in culture. In kind it is cell-based.
Data set [9] in a line: Toxicity in mice, body weight over 7 days. The format is in vivo, Balb/c mice. The conditions noted are these: for Animal body weight (kg) Day 0 / Animal body weight (kg) Day 1 / Animal body weight (kg) Day 2 / Animal body weight (kg) Day 3 / Animal body weight (kg) Day 4 / Animal body weight (kg) Day 5 / Animal body weight (kg) Day 6 / Animal body weight (kg) Day 7: mice, IP; for Animal body weight (kg) Day 0: Day 0, individual animals; for Animal body weight (kg) Day 1: Day 1, individual animals; for Animal body weight (kg) Day 2: Day 2, individual animals; for Animal body weight (kg) Day 3: Day 3, individual animals; for Animal body weight (kg) Day 4: Day 4, individual animals; for Animal body weight (kg) Day 5: Day 5, individual animals; for Animal body weight (kg) Day 6: Day 6, individual animals; for Animal body weight (kg) Day 7: Day 7, individual animals. An excerpt: The vehicle is 40% PEG300 solution in 0.9% NaCl. […] Thus, the compounds are useful for in vivo antimicrobial administration.

Regarding `Oc1ccccc1Sc1c[nH]c2ccc(C(F)(F)F)cc12` [Compound 177A, 2-((5-(trifluoromethyl)-1H-indol-3-yl)thio)phenol], the EC50 in [1] came to 24.1 µg/mL (≈ 77.9 µM). The MIC is 0.39 µg/mL (≈ 1.26 µM) in data set [2]; more than 50 µg/mL in data set [3]; more than 50 µg/mL in data set [4]; 0.78 µg/mL (≈ 2.52 µM) in [5]; 3.13 µg/mL (≈ 10.1 µM) in [6] (strain #203); 3.13 µg/mL (≈ 10.1 µM) in data set [6] (strain #205). Besides, in data set [3], the MBC is more than 50 µg/mL.

Consider `Nc1ccccc1Sc1c[nH]c2ccc(C(F)(F)F)cc12` [Compound 177C, 2-((5-(trifluoromethyl)-1H-indol-3-yl)thio)aniline], for which the EC50 in data set [1] was determined as 48.2 µg/mL (≈ 156 µM). Besides, the MIC in data set [2] was 0.39 µg/mL (≈ 1.26 µM); in data set [3], more than 50 µg/mL; in data set [4] it was more than 50 µg/mL; in data set [5], 3.13 µg/mL (≈ 10.2 µM); in [6] (strain #203), 3.13 µg/mL (≈ 10.2 µM); in data set [6] (strain #205) it was 3.13 µg/mL (≈ 10.2 µM). In addition, the MBC in [3] was more than 50 µg/mL.

In turn, `Cc1[nH]c2ccc(Br)cc2c1Sc1ccccc1Br` [Compound 174AZ, 5-bromo-3-((2-bromophenyl)thio)-2-methyl-1H-indole] registered an EC50 in data set [1] of 25.8 µg/mL (≈ 65 µM). Further, the MBC in [2] (Bacillus subtilis NRRL: B-571, minimum bactericidal concentration) was found to be 4 µg/mL (≈ 10.1 µM); in data set [7] it was 8 µg/mL (≈ 20.1 µM). The MIC in data set [2] is 1 µg/mL (≈ 2.52 µM); in data set [7] (Bacillus thuringiensis, read-out: MIC), 1 µg/mL (≈ 2.52 µM); in [4], more than 50 µg/mL; in [5], 1 µg/mL (≈ 2.52 µM); in data set [6] (strain #167), 3.12 µg/mL (≈ 7.87 µM); in data set [8] (read-out: F. tularensis BSL-3 MIC, Strain 100) it was 4 µg/mL (≈ 10.1 µM). The MIC in [8] (read-out: F. tularensis BSL-3 MIC, strain HN-63) was found to be 2 µg/mL (≈ 5.04 µM); in [8] (read-out: F. tularensis BSL-3 MIC, strain LVS), 2.67 µg/mL (≈ 6.72 µM); in data set [8] (read-out: F. tularensis BSL-3 MIC, strain MA00-2987), 2 µg/mL (≈ 5.04 µM); in data set [8] (read-out: F. tularensis BSL-3 MIC, strain MO #1), 1.33 µg/mL (≈ 3.35 µM); in data set [8] (read-out: F. tularensis BSL-3 MIC, strain MO #2) it was 1 µg/mL (≈ 2.52 µM); in [8] (read-out: F. tularensis BSL-3 MIC, strain MO #3) it was 2 µg/mL (≈ 5.04 µM). The MIC in [8] (read-out: F. tularensis BSL-3 MIC, strain OR-96) turned out to be 2 µg/mL (≈ 5.04 µM); in data set [8] (read-out: F. tularensis BSL-3 MIC, strain SCHU S4), 4 µg/mL (≈ 10.1 µM); in [8] (read-out: F. tularensis BSL-3 MIC, strain WY-96), 2 µg/mL (≈ 5.04 µM); in [8] (read-out: MAX, highest MIC over the Francisella tularensis strains) it was 4 µg/mL (≈ 10.1 µM); in data set [8] (read-out: MIN, lowest MIC over the Francisella tularensis strains), 1 µg/mL (≈ 2.52 µM). The compound also had an MIC50 in [8] of 2 µg/mL (≈ 5.04 µM). Moreover, the “toxicity in mice by body weight” value in [9] (6-week-old Balb/c mice, body weight over 7 days, vehicle 40% PEG300 in 0.9% NaCl) is reported as “did not have significant toxicity”. The “Animal body weight (kg) Day 0” value in [9] (0.1 mg/kg, 0.1 mg/kg) is 0.023 kg (2×) and 0.025 kg; in [9] (1 mg/kg, 1 mg/kg), 0.024 kg (2×) and 0.025 kg; in data set [9] (10 mg/kg, 10 mg/kg) it was 0.023 kg (2×) and 0.024 kg. The “Animal body weight (kg) Day 1” value in data set [9] (0.1 mg/kg, 0.1 mg/kg) is 0.022 kg and 0.024 kg and 0.023 kg; in data set [9] (1 mg/kg, 1 mg/kg), 0.023 kg and 0.024 kg (2×); in data set [9] (10 mg/kg, 10 mg/kg), 0.022 kg (2×) and 0.023 kg. Further, the “Animal body weight (kg) Day 2” value in [9] (0.1 mg/kg, 0.1 mg/kg) was 0.022 kg and 0.025 kg and 0.023 kg; in data set [9] (1 mg/kg), 0.024 kg; in data set [9] (10 mg/kg, 10 mg/kg), 0.022 kg and 0.023 kg (2×). For the same compound, the “Animal body weight (kg) Day 3” value in data set [9] (0.1 mg/kg, 0.1 mg/kg) was 0.022 kg and 0.025 kg and 0.023 kg; in data set [9] (1 mg/kg, 1 mg/kg), 0.025 kg and 0.024 kg (2×); in data set [9] (10 mg/kg, 10 mg/kg), 0.022 kg (2×) and 0.023 kg. The “Animal body weight (kg) Day 4” value in [9] (0.1 mg/kg, 0.1 mg/kg) is 0.023 kg (2×) and 0.025 kg; in data set [9] (1 mg/kg, 1 mg/kg), 0.025 kg (2×) and 0.024 kg; in data set [9] (10 mg/kg), 0.023 kg. The “Animal body weight (kg) Day 5” value is 0.022 kg and 0.025 kg and 0.023 kg in [9] (0.1 mg/kg, 0.1 mg/kg); 0.025 kg and 0.023 kg and 0.024 kg in data set [9] (1 mg/kg, 1 mg/kg); 0.023 kg in [9] (10 mg/kg). The “Animal body weight (kg) Day 6” value in data set [9] (0.1 mg/kg, 0.1 mg/kg) is 0.022 kg and 0.025 kg and 0.023 kg; in [9] (1 mg/kg, 1 mg/kg) it was 0.025 kg and 0.024 kg (2×); in data set [9] (10 mg/kg, 10 mg/kg), 0.022 kg (2×) and 0.023 kg. Besides, the “Animal body weight (kg) Day 7” value in data set [9] (0.1 mg/kg, 0.1 mg/kg) was 0.022 kg (2×) and 0.025 kg; in data set [9] (1 mg/kg, 1 mg/kg) it was 0.025 kg and 0.023 kg and 0.024 kg; in data set [9] (10 mg/kg, 10 mg/kg), 0.023 kg (2×) and 0.022 kg.
